{"source": "paper PMC8486167", "about": "“Orally Active Peptide Vector Allows Using Cannabis to Fight Pain While Avoiding Side Effects” (Journal of Medicinal Chemistry, 2021)", "key": {"CB1R–5HT2AR heteromer [1]": {"molecular_target": "T1, CB1R–5HT2AR heteromer (Homo sapiens, UniProt P28223)", "T1 construct": "expressed in transfected cells; host or cells: HEK-293T / HEK-293", "T1 sequence (P28223 whole entry, the tested form may be a part, one chain of several)": "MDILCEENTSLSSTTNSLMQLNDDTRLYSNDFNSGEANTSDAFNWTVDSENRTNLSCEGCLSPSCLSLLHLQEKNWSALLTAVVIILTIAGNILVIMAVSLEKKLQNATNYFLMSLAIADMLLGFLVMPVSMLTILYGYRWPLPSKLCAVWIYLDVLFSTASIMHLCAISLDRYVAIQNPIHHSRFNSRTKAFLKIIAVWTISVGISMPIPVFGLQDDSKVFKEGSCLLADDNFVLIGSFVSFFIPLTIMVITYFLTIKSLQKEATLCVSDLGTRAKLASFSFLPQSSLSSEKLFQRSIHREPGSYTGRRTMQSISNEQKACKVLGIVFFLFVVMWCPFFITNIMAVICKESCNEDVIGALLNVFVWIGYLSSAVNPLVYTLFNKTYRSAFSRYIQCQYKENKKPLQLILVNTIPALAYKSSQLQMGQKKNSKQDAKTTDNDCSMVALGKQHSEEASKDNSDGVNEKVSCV", "test": "cAMP production (HTRF), decrease in FK-induced cAMP", "format": "cell-based", "details": "for FK-induced cAMP production after agonist: agonist 100 nM, all groups", "protocol": "Sequences encoding YFP Venus protein amino acid residues 1–155 and 156–238 were subcloned in the pcDNA3.1 vector to obtain the YFP Venus hemitruncated proteins. The human cDNAs for 5HT2AR and CB1R, cloned into the pcDNA3.1, were amplified and subcloned as described[18] to give 5HT2AR-cYFP and CB1R-nYFP. Human embryonic kidney (HEK-293T) cells obtained from ATCC were grown in Dulbecco’s modified Eagle’s medium (DMEM) (Gibco) supplemented with 2 mM L-glutamine, 100 μg/mL sodium pyruvate, 100 U/mL penicillin/streptomycin, MEM nonessential amino acid solution (1/100), and 5% (v/v) heat-inactivated fetal bovine serum (FBS) (all supplements from Invitrogen, Paisley, Scotland, UK). Cells were maintained at 37 °C in an atmosphere of 5% CO2. HEK-293T cells were transfected with the corresponding fusion protein cDNA by the polyethylenimine (Sigma) method, as described before.[18]\nFor cAMP production, homogeneous time-resolved fluorescence energy transfer (HTRF) assays were performed as previously described.[18] […] Fluorescence at 665 nm was analyzed on a PHERAstar Flagship microplate reader equipped with an HTRF optical module (BMG Lab technologies, Offenburg, Germany)."}, "trypsin": {"test_system": "trypsin", "details": "24 h vs 0 h, HPLC main peak area, mean ± SEM, n = 2", "protocol": "Peptide samples, incubated with trypsin, were collected and analyzed as before.[60] For human serum digestion, peptide [1000 μM, 2% dimethyl sulfoxide (DMSO) in filtered H2O] was added to human serum (Sigma, St Louis, Missouri) in a 1:1 ratio and incubated at 37 °C with gentle shaking. At 0 min and 24 h, aliquots were taken and proteolysis was stopped with CH3CN (80% in filtered H2O), chilled at 0 °C for 15 min to precipitate serum proteins, and centrifuged at 13,000 rpm at 4 °C for 10 min. The supernatant was collected and analyzed by analytical RP-HPLC and LC–MS as described before,[60] with a 0–95% linear gradient of CH3CN over 15 min. All experiments are performed in duplicate and data were fitted with GraphPad Prism."}, "mice [2]": {"test_system": "mice", "test": "Novel object recognition test (THC memory impairment)", "format": "in vivo", "details": "mouse; THC 3 mg/kg IP", "protocol": "On day 1 (Habituation), mice were habituated for 9 min to the V-maze in which the task was performed. The following day (Training), mice were placed in the V-maze for 9 min, two identical objects were presented and the time that the mice spent exploring each object was recorded. Mice were again placed in the maze 24 h later for 9 min (Test), one of the familiar objects was replaced with a novel object and the total time spent exploring each of the two objects (novel and familiar) was recorded. Object exploration was defined as the orientation of the nose to the object at less than 2 cm. A discrimination index was calculated as the difference between the time spent exploring the novel or familiar object divided by the total time exploring the two objects. A higher discrimination index is considered to reflect greater memory retention for the familiar object.\nThirty min after peptide administration, mice received an IP injection of vehicle (5% v/v of ethanol, 5% v/v of Cremophor-EL, and 90% v/v saline) or 3 mg/kg of THC dissolved in vehicle."}, "mice [3]": {"test_system": "mice", "test": "Hot-plate test (THC-induced analgesia)", "details": "mouse; THC 10 mg/kg IP"}, "[4]": {"test_system": "bEnd.3 brain endothelial cells", "details": "5(6)-carboxyfluorescein-labeled peptides; bEnd.3 cells; fluorescence in basolateral chamber after 24 h; n = 3–6", "method": "bEnd.3 brain endothelial cells (ATCC CRL-2299TM) were grown as a monolayer in DMEM supplemented with 10% FBS and 1% penicillin/streptomycin solution (Gibco, USA). Cells were cultured in a humidified atmosphere of 95% air and 5% CO2 at 37 °C (MCO-18AIC (UV), Sanyo, Japan), with daily medium replacement.\nThe translocation capabilities of 5(6)-carboxyfluorescein-labeled peptides were determined using a protocol previously described.[30],[31] After the experiment, the integrity of the endothelial barrier was checked by measuring the permeability of a 4 kDa fluorescently labeled dextran (FD4) as previously described.[25] Experiments were carried out on different days using independently grown cell cultures."}, "CB1R–5HT2AR heteromer [5]": {"molecular_target": "T1, CB1R–5HT2AR heteromer", "test": "ERK-1/2 phosphorylation assay (α-screen)", "format": "cell-based", "method": "Phosphorylation was determined in white ProxiPlate 384-well microplates (PerkinElmer Life Sciences) by the α-screen bead-based technology using the amplified luminescent proximity homogeneous assay kit (PerkinElmer Life Sciences) and using the Enspire multimode plate reader (PerkinElmer Life Sciences). Phosphorylation is expressed in arbitrary units, ALPHAcounts, as measured by light emission at 520–620 nm of the acceptor beads."}, "mice [6]": {"test_system": "mice", "test": "Immunogenicity: mice immunization and serum ELISA", "format": "in vivo, mouse", "details": "CD-1 mice, IV, 5 consecutive days and boost at day 15; 17 at 100 μg/dose, 17-KLH at 30 μg; sera days 0, 9, 19; plates coated with 17-BSA", "protocol": "Experiments were performed at the ICTS “NANBIOSIS” Custom Antibody Service (CAbS, CIBER-BBN, IQAC-CSIC). The immune response to 17 was assessed in outbred Swiss ICR (CD-1) mice strain Hsd:ICR (CD-1) (Envigo RMS, The Netherlands), following the immunization schedule in Figure 7. Animals were housed under standard conditions in the CID-CSIC animal facility. Animal experimental procedures were conducted in accordance with protocols approved by CSIC Committee on Ethics of Animal Experiments and Biosafety, as well as the Spanish National Committee on Ethics and Animal Welfare. Briefly, a first group of 10 female mice received IV doses of 17 (200 μL, 20 mg/kg, PBS + 2% DMSO), a second group of 5 mice received IV doses of 17-KLH conjugate (200 μL, 30 μg) and a third group of 5 mice received IVdoses of PBS (200 μL, negative control). The 17-KLH conjugate, administered with Freund’s adjuvant, was also used to generate polyclonal antibody (positive control) (data not shown). Serum samples were collected by tail vein bleeds on days 0, 9, and 19. […] The peptide-specific humoral response was determined by indirect ELISA. […] Color development was stopped with 4 N H2SO4 (50 μL/well) after 30 min at r.t., and absorbance read at 450 nm. Titers in a log10 scale were expressed as the reciprocal of the last dilution giving the absorbance recorded in the control wells (serum at day 0) plus 2 SD."}, "[7]": {"details": "RIM 1 μM vs DOI 100 nM, MDL 300 nM vs WIN 100 nM, no peptide"}}, "note": "Square brackets hold non-standard residues; d marks the D form. Ends that are not written are not given here. Peptide text beside a SMILES is read from it.", "data": [{"compound": "COc1cc(CC(C)N)c(OC)cc1I", "note": "(stereo not shown) [DOI, 2,5-dimethoxy-4-iodoamphetamine]", "values": [{"measurement": "FK-induced cAMP production after agonist", "setting": "CB1R–5HT2AR heteromer [1]; 0.5 μM FK", "result": "reduced cAMP production"}]}, {"compound": "SKSKSKKTLVLILVV-NH2 [compound 10]", "values": [{"measurement": "proteolytic stability: unaltered peptide remaining after trypsin incubation", "setting": "trypsin", "result": "poor survival"}]}, {"compound": "CCCCCc1cc(O)c2c(c1)OC(C)(C)[C@@H]1CCC(C)=C[C@@H]21", "note": "[THC, Δ^9-tetrahydrocannabinol]", "values": [{"measurement": "THC effect in novel object recognition test", "setting": "mice [2]", "result": "memory impairment"}, {"measurement": "THC effect in hot-plate test", "setting": "mice [3]", "result": "analgesic effects"}]}, {"compound": "CC[C@@H](C)[C@@H](NC(=O)CNC(=O)[C@@H](C)N)C(=O)N[C@H](CC(C)C)C(=O)N[C@H](CCCCN)C(=O)N[C@H](CCCNC(=N)N)C(=O)N[C@H](Cc1c[nH]c2ccccc12)C(=O)N[C@@H](CCCCN)C(=O)N[C@H](C(=O)N[C@@H](CC(C)C)C(=O)N[C@H](C(=O)N[C@@H](CC(C)C)C(=O)N[C@H](C(=O)N[C@@H](CC(C)C)C(=O)N[C@H](C(=O)N[C@H](C(N)=O)C(C)C)C(C)C)[C@@H](C)CC)C(C)C)[C@@H](C)O", "note": "[compound 15] (H-[dA]G[dI][dL][dK][dR][dW]KTLVLILVV-NH2)", "values": [{"measurement": "translocation across the transwell BBB model", "setting": "[4]", "result": "translocated more efficiently than 14 and 16"}]}, {"compound": "VYAYMYILWSKSKSK-NH2 [compound 6]", "values": [{"measurement": "proteolytic stability: unaltered peptide remaining after trypsin incubation", "setting": "trypsin", "result": "poor survival"}]}, {"compound": "VYAYMYILWAGILKRW-NH2 [compound 5]", "values": [{"measurement": "proteolytic stability: unaltered peptide remaining after trypsin incubation", "setting": "trypsin", "result": "poor survival"}]}, {"compound": "AGILKRWKTLVLILVV-NH2 [compound 9]", "values": [{"measurement": "proteolytic stability: unaltered peptide remaining after trypsin incubation", "setting": "trypsin", "result": "poor survival"}]}, {"compound": "Cc1c(C(=O)NN2CCCCC2)nn(-c2ccc(Cl)cc2Cl)c1-c1ccc(Cl)cc1", "note": "[RIM, rimonabant]", "values": [{"measurement": "antagonist block of the partner receptor's agonist signal (cross-antagonism, cAMP)", "setting": "CB1R–5HT2AR heteromer [1]; [7]", "result": "blocked the decrease in FK-induced cAMP or the increase in pERK triggered by the 5HT2AR agonist DOI"}, {"measurement": "antagonist block of the partner receptor's agonist signal (cross-antagonism, pERK)", "setting": "CB1R–5HT2AR heteromer [5]; [7]", "result": "blocked the decrease in FK-induced cAMP or the increase in pERK triggered by the 5HT2AR agonist DOI"}]}, {"compound": "Cc1c(C(=O)c2cccc3ccccc23)c2cccc3c2n1[C@H](CN1CCOCC1)CO3", "note": "[WIN, WIN 55,212-2]", "values": [{"measurement": "FK-induced cAMP production after agonist", "setting": "CB1R–5HT2AR heteromer [1]; 0.5 μM FK", "result": "reduced cAMP production"}]}, {"compound": "CC[C@@H](C)[C@@H](NC(=O)CNC(=O)[C@@H](C)NC(=O)[C@H](NC(=O)[C@@H](Cc1ccc(O)cc1)NC(=O)[C@@H](C)NC(=O)[C@@H](Cc1ccc(O)cc1)NC(=O)[C@@H](CCSC)NC(=O)[C@@H](Cc1ccc(O)cc1)NC(=O)[C@H](NC(=O)[C@@H](CC(C)C)NC(=O)[C@H](N)Cc1c[nH]c2ccccc12)[C@H](C)CC)C(C)C)C(=O)N[C@H](CC(C)C)C(=O)N[C@H](CCCCN)C(=O)N[C@H](CCCNC(=N)N)C(=O)N[C@H](Cc1c[nH]c2ccccc12)C(N)=O", "note": "[compound 17] (H-[dW][dL][dI][dY][dM][dY][dA][dY][dV][dA]G[dI][dL][dK][dR][dW]-NH2)", "values": [{"measurement": "immunogenicity: peptide-specific antibody response (ELISA titers)", "setting": "mice [6]", "result": "did not evoke any detectable immune response"}]}, {"compound": "LIKTVFAFCSMLCLLNSTVNPIIYALRGRKKRRQRRR [TM7-Tat, peptide TM7-Tat, used as a negative control]", "values": [{"measurement": "elimination of bidirectional cross-antagonism (FK-induced cAMP)", "setting": "CB1R–5HT2AR heteromer [1]; DOI 100 nM, WIN 100 nM, MDL 300 nM, RIM 1 μM, 0.5 μM FK, n = 3–6", "result": "not observed with TM7-Tat"}, {"measurement": "influence on G protein coupling preference of 5HT2AR", "setting": "CB1R–5HT2AR heteromer [1]; FK-induced cAMP, 0.5 μM FK, WIN 100 nM or DOI 100 nM, transfected HEK-293T cells, n = 3–6", "result": "5HT2AR remains Gi-coupled in the presence of interfering peptides"}, {"measurement": "elimination of bidirectional cross-antagonism (pERK)", "setting": "CB1R–5HT2AR heteromer [5]; DOI 100 nM, WIN 100 nM, MDL 300 nM, RIM 1 μM, % of basal, n = 4–9", "result": "not observed with TM7-Tat"}]}, {"compound": "CC[C@@H](C)[C@@H](NC(=O)CNC(=O)[C@@H](C)NC(=O)[C@H](Cc1c[nH]c2ccccc12)NC(=O)[C@H](CC(C)C)NC(=O)[C@@H](NC(=O)[C@H](Cc1ccc(O)cc1)NC(=O)[C@H](CCSC)NC(=O)[C@H](Cc1ccc(O)cc1)NC(=O)[C@H](C)NC(=O)[C@H](Cc1ccc(O)cc1)NC(=O)[C@@H](N)C(C)C)[C@@H](C)CC)C(=O)N[C@H](CC(C)C)C(=O)N[C@H](CCCCN)C(=O)N[C@H](CCCNC(=N)N)C(=O)N[C@H](Cc1c[nH]c2ccccc12)C(N)=O", "note": "[compound 13] (H-VYAYMYILW[dA]G[dI][dL][dK][dR][dW]-NH2)", "values": [{"measurement": "translocation across the transwell BBB model", "setting": "[4]", "result": "translocated more efficiently than 14 and 16"}]}]}
